We go through two compounds from paper PMC2376372, “3-Bromophenyl 6-acetoxymethyl-2-oxo-2H-1-benzopyran-3-carboxylate inhibits cancer cell invasion in vitro and tumour growth in vivo” (British Journal of Cancer, 2003).

The subject of one assay is HMW- and LMW-uPA. Kind of assay: Plasminogen zymography of HT1080 conditioned medium. In kind it is biochemical, human. Particulars: 1–100 μM in HT1080 conditioned medium. Here is the method:
The culture medium of human fibrosarcoma HT1080 cells (DMEM) was removed and concentrated 20-fold in a Vivaspin 6 ml concentrator. It was incubated for 30 min at ambient temperature in nonreducing sample buffer and run under Laemmli conditions ([Laemmli, 1970]) by loading a volume of 25 μl onto 7.5% polyacrylamide gels containing 0.1% sodium dodecyl sulphate (SDS), 2 mg ml^−1 casein and 0.16 μM human plasminogen. Following electrophoresis, gels were incubated for 1 h in 2.5% (v v^−1) Triton X-100 for removal of SDS and then for 1 h at 37°C in 50 mM Tris-HCl, 0.1 M NaCl, pH 7.6. Plasminogen activator (PA) activity was visualised as clear bands of lysis upon staining with 0.1% Coomassie blue R250. Purified human high-molecular-weight two-chain urokinase plasminogen activator (HMW-uPA) and low-molecular-weight urokinase plasminogen activator (LMW-uPA) were run in each gel as positive controls. An analogous protocol was followed to detect enzymatic activities towards MMP-2 and MMP-9 except that the 7% SDS–PAGE contained 1 mg ml^−1 bovine gelatin. The gels were incubated at 37°C for about 18 h in 5 mM Tris, pH 7.6 containing 0.2 M NaCl, 5 mM CaCl2 and 0.02 (w v^−1) Brij35. Protein staining was performed during 1 h with a 0.25% solution of Coomassie brillant blue R250 in 50% methanol and 7% acetic acid and destaining in a solution of 20% methanol and […]. […]

In assay [1] the test system is HT1080 fibrosarcoma cells. Kind of assay: Chemoinvasion assay, type IV collagen-coated Transwell inserts (Boyden chamber). The class given is cell-based, human. Conditions: Homo sapiens, HT-1080, 48 h, type IV collagen-coated filters, read-out: inhibition of HT1080 cell invasion (chemoinvasion). Here is the method: Plates (24-well) (Falcon, Becton-Dickinson, USA) and 6.5 mm polycarbonate filters (8 μm pore size) of Transwell cell culture chamber inserts (Costar, Netherlands) were coated with 100 μl of type IV collagen purified from human placenta diluted at 200 μg ml^−1 in phosphate-buffered saline (PBS). Coats were left to air-dry overnight in a laminar flow hood under UV light. Uniformity of the coating was assessed by Coomassie blue staining. Before use, coated plates and inserts were washed twice with water and incubated for at least 1 h in serum-free DMEM at 37°C ([Maquoi et al, 1999]).
(§1) HT1080 cells exponentially growing in T-75 flasks (Nunc, Costar, Netherlands) were collected by trypsin–ethylenediaminetetraacetic acid treatment, washed with serum-containing medium and allowed to recover from trypsinisation for at least 30 min at 37°C. Cells were then washed twice in serum-free DMEM and diluted in the same medium supplemented with 0.1% bovine serum albumin (BSA, fraction V, Sigma, USA) to a cell density of 6 × 10^5 cells ml^−1.
(§2) The influence of coumarin derivatives (0.1, 1 and 10 μM) on HT1080 cell invasion and migration was assayed using Transwell cell culture inserts (Costar) and compared to the reference compound GI 129471 (1 μM), an MMP inhibitor ([Wheeler et al, 1998]).
(§3) For chemoinvasion assays, type IV collagen-coated membranes (see above) were used, whereas uncoated membranes were employed for chemotaxis assays. Lower wells of chambers were filled with DMEM supplemented with 20% FCS and 1% BSA (fraction V, ICN) as chemoattractant, in the presence or absence of coumarin derivative (final concentration 0.1, 1 and 10 μM) or GI 129471 (final concentration 1 μM). Cells (6 × 10^4) suspended in DMEM supplemented with 0.1% BSA (fraction V, ICN) were seeded in the upper wells. Chambers were subsequently incubated for 48 and 4 h for chemoinvasion and chemotaxis assays, respectively, in a humid atmosphere at 37°C (in order to maintain a chemotactic gradient, media from both lower and upper wells were renewed after 24 h). After incubation, filters were removed from the chambers, fixed in 4% paraformaldehyde for 15 min (4°C), permeabilised for 10 min in methanol (−20°C) and stained with Giemsa (4%) for 15 min. The upper surface of the filters was scrapped with a cotton swab and cells having reached the lower surface of the filters were visually counted using a light microscope (Vanox AH3, Olympus, Hamburg, Germany) at 20-fold magnification. Each assay was performed in triplicate. Results were expressed as percentages (±s.d.) of the migration of control cells.

For assay [2], the system named is HT1080 fibrosarcoma cells. Kind of assay: Chemotaxis assay, uncoated Transwell inserts. The class given is cell-based, human. Particulars: Homo sapiens, HT-1080, 4 h, uncoated filters. Here is the method:
as §1, §2, §3

The subject of a further assay is HT1080 cells. The experiment in a line: Tumorigenicity of HT1080 cells injected s.c. with matrigel in nude mice. In kind it is in vivo. Particulars: 30 mg kg^−1 i.p. three times per week; for effect on tumour growth (tumour volume), HT1080: ANOVA; for time after cell inoculation to reach a tumour incidence of 50%: tumours higher than 80 mm^3. Here is the method: Matrigel (basement membrane proteins) was extracted from the mouse Engelbreth–Holm–Swarm (EHS) tumour as previously described ([Noël et al, 1991]). Tumoral cells were detached by trypsinisation, harvested by centrifugation, resuspended in 0.25 ml of serum-free medium and mixed with an equal volume of cold matrigel (10 mg ml^−1). The suspension (1 × 10^6 cells injection site^−1) was injected subcutaneously (s.c.) on both body flanks of 6–8-week-old female athymic nude mice (n=6; nu/nu Swiss mice from Iffa credo, L'Arbresle, France). The coumarin derivatives in PBS were injected intraperitoneally (30 mg kg^−1) three times per week during the whole assay.
The tumorigenicity defines the capacity of cells to induce tumour formation. The larger (a) and smaller (b) diameters of the apparent tumour were measured and served for tumour volume calculation according to a × b^2 × 0.4 ([Attia and Weiss, 1966]). Injected mice were examined weekly. Tumours presenting a volume higher than 80 mm^3 and which maintained a progressive growth were taken into account ([Noël et al, 1992]). Results are expressed as the mean (±s.e.m.) of the tumour volumes.

Take `CC(=O)OCc1ccc2oc(=O)c(C(=O)Oc3cccc(Cl)c3)cc2c1` [compound 4, 3-chlorophenyl 6-acetoxymethyl-2-oxo-2H-1-benzopyran-3-carboxylate]: the “effect on HMW- and LMW-uPA activities of conditioned culture medium (plasminogen zymography)” value with HMW- and LMW-uPA is given as “did not abrogate”. Besides, in assay [1], the inhibition – broadly, the drop in the measured response relative to a control, in per cent – at 1 µM was determined as 50% and the inhibition at 10 µM was determined as 90%. In addition, testing at 0.1 µM in assay [2] (0.1 μM) gave an inhibition of 20%. Also, the inhibition at 1 µM in assay [2] was found to be 50%. For the same compound, in assay [2] (10 μM), 10 µM produced 80% inhibition. Moreover, in the assay with HT1080 cells, the “effect on tumour growth (tumour volume), HT1080” value is reported as “did not significantly affect tumour growth” and the “time after cell inoculation to reach a tumour incidence of 50%” value was 26 days.

Consider `CC(=O)OCc1ccc2oc(=O)c(C(=O)Oc3cccc(Br)c3)cc2c1` [compound 7, 3-bromophenyl 6-acetoxy-methyl-2-oxo-2H-1-benzopyran-3-carboxylate], for which the “effect on HMW- and LMW-uPA activities of conditioned culture medium (plasminogen zymography)” value in the assay with HMW- and LMW-uPA is on record as “did not abrogate”. In addition, in assay [1], the inhibition at 1 µM was 80% and the inhibition at 10 µM was about 90%. This compound also yielded an inhibition at 1 µM in assay [2] of about 30%. For the same compound, in the assay with HT1080 cells, the “effect on tumour growth (tumour volume), HT1080” value is “significantly reduced the tumour growth” and the “time after cell inoculation to reach a tumour incidence of 50%” value was 48 days. The “effect on tumour incidence, HT1080” value with HT1080 cells (log Rank test, P<0.004) is “reduce both the incidence”.
